For this assay, the system named is promyelocytic leukemia cell strain HL-60. Description: Cell differentiation inducing activity of retinoids on HL-60 in presence/absence of test compound (NBT reduction). In kind it is cell-based. The protocol:
The effects of the compounds of the above Examples 1 and 2 on cell differentiation induced by retinoids were studied. As retinoid compounds (i.e., agonists against the all-trans retinoic acid receptor), retinoic acid and Am80 (4-[(5,6,7,8-tetrahydro-5,5,8,8-tetramethyl-2-naphthalenyl)carbamoyl]benzoic acid) were used. Cell differentiation inducing activities of the above retinoids on promyelocytic leukemia cell strain HL-60 were measured in the presence and absence of the compounds of Examples 1 and 2 according to the method described in the Japanese Patent Unexamined Publication (KOKAI) No.(Sho)61-76440/1986. The degrees of the differentiation into granulocytic cell were determined by observing nuclear morphologies and measuring abilities to reduce nitroblue tetrazolium (NBT). This method is well known in the art as a test that enables accurate evaluation of the cell differentiation inducing activity of retinoids. The results are shown in the Table 2 set out below (in the table, NTB positive ratio represents a percent value of differentiated cells based on living cells).
Effect of the compound of Example 10 (HX801) on the cell differentiation inducing activity by a retinoid was examined. Am80 was used as the retinoid compound and the cell differentiation inducing activity of the above retinoid on promyelocytic leukemia cell strain HL-60 was determined in the presence or absence of the compound of HX801 in the same manner as Example 15. The results are shown in the Table 3 set out below (in the table, the symbol “-” indicates no addition).

Molecules are shown by their SMILES.

As to `CN1c2ccccc2N=C(c2ccc(C(=O)O)cc2)c2cc3c(cc21)C(C)(C)CCC3(C)C` [HX600, 4-[5H-2,3-(2,5-dimethyl-2,5-hexano)-5-methyldibenzo-[b,e][1,4]diazepine-11-yl]benzoic acid], the NBT positive ratio is, setting by setting: (Am80 1.0 × 10^−8 M + test compound 1.0 × 10^−6 M (HX600 series)) 95%; (Am80 1.0 × 10^−8 M + test compound 1.0 × 10^−7 M) 91%; (Am80 1.0 × 10^−8 M + test compound 1.0 × 10^−8 M) 80%; (Am80 1.0 × 10^−8 M + test compound 1.0 × 10^−9 M) 69%; (Am80 1.1 × 10^−9 M + test compound 1.0 × 10^−6 M (HX600 series)) 93%; (Am80 1.1 × 10^−9 M + test compound 1.0 × 10^−7 M) 90%. Also, the NBT positive ratio was determined as 65% (Am80 1.1 × 10^−9 M + test compound 1.0 × 10^−8 M); 48% (Am80 1.1 × 10^−9 M + test compound 1.0 × 10^−9 M); 93% (Am80 3.3 × 10^−9 M + test compound 1.0 × 10^−6 M (HX600 series)); 93% (Am80 3.3 × 10^−9 M + test compound 1.0 × 10^−7 M); 73% (Am80 3.3 × 10^−9 M + test compound 1.0 × 10^−8 M); 64% (Am80 3.3 × 10^−9 M + test compound 1.0 × 10^−9 M). Besides, the NBT positive ratio runs as follows: (Am80 3.7 × 10^−10 M + test compound 1.0 × 10^−6 M (HX600 series)) 67%; (Am80 3.7 × 10^−10 M + test compound 1.0 × 10^−7 M) 72%; (Am80 3.7 × 10^−10 M + test compound 1.0 × 10^−8 M) 41%; (Am80 3.7 × 10^−10 M + test compound 1.0 × 10^−9 M) 21%; (Retinoic acid 1.0 × 10^−8 M + test compound 1.0 × 10^−6 M) 91%; (Retinoic acid 1.0 × 10^−8 M + test compound 1.1 × 10^−7 M) 91%. Besides, the NBT positive ratio amounted to 91% (Retinoic acid 1.0 × 10^−8 M + test compound 3.3 × 10^−7 M); 69% (Retinoic acid 1.1 × 10^−9 M + test compound 1.0 × 10^−6 M); 68% (Retinoic acid 1.1 × 10^−9 M + test compound 1.1 × 10^−7 M); 76% (Retinoic acid 1.1 × 10^−9 M + test compound 3.3 × 10^−7 M); 90% (Retinoic acid 3.3 × 10^−9 M + test compound 1.0 × 10^−6 M); 86% (Retinoic acid 3.3 × 10^−9 M + test compound 1.1 × 10^−7 M). For the same compound, for the setting “Retinoic acid 3.3 × 10^−9 M + test compound 3.3 × 10^−7 M”, the NBT positive ratio is 90%.

With `CC1=C(/C=C/C(C)=C/C=C/C(C)=C/C(=O)O)C(C)(C)CCC1` [Retinoic acid, retinoic acid, reference compound], the NBT positive ratio runs as follows: (Retinoic acid 1.0 × 10^−8 M alone, test compound absent) 54%; (Retinoic acid 1.1 × 10^−9 M alone, test compound absent) 14%; (Retinoic acid 3.3 × 10^−9 M alone, test compound absent) 36%.

As for `CN1c2cc3c(cc2N=C(c2ccc(C(=O)O)cc2)c2ccccc21)C(C)(C)CCC3(C)C` [LE135, 4-(5H-7,8,9,10-tetrahydro-5,7,7,10,10-pentamethylbenzo[e]naphto[2,3-b][1,4]diazepin-13-yl)benzoic acid, reference compound], the NBT positive ratio is listed as 34% (Am80 1.0 × 10^−8 M + test compound 1.0 × 10^−6 M (LE135 series)); 62% (Am80 1.0 × 10^−8 M + test compound 1.1 × 10^−7 M); 51% (Am80 1.0 × 10^−8 M + test compound 3.3 × 10^−7 M); 2% (Am80 1.1 × 10^−9 M + test compound 1.0 × 10^−6 M (LE135 series)); 23% (Am80 1.1 × 10^−9 M + test compound 1.1 × 10^−7 M); 5% (Am80 1.1 × 10^−9 M + test compound 3.3 × 10^−7 M). Moreover, the NBT positive ratio runs as follows: (Am80 3.3 × 10^−9 M + test compound 1.0 × 10^−6 M (LE135 series)) 14%; (Am80 3.3 × 10^−9 M + test compound 1.1 × 10^−7 M) 54%; (Am80 3.3 × 10^−9 M + test compound 3.3 × 10^−7 M) 32%; (Am80 3.7 × 10^−10 M + test compound 1.0 × 10^−6 M (LE135 series)) 1.3%; (Am80 3.7 × 10^−10 M + test compound 1.1 × 10^−7 M) 3%; (Am80 3.7 × 10^−10 M + test compound 3.3 × 10^−7 M) 1.2%. The “cell differentiation inducing activity of Am80” value (compound coexisting with Am80) is “significantly suppressed”.

`CC1(C)CCC(C)(C)c2cc(NC(=O)c3ccc(C(=O)O)cc3)ccc21` [Am80, 4-[(5,6,7,8-tetrahydro-5,5,8,8-tetramethyl-2-naphthalenyl)carbamoyl]benzoic acid, reference compound]: the NBT positive ratio is, setting by setting: (Am80 1.0 × 10^−8 M alone, test compound absent (HX600 series)) 55%; (Am80 1.0 × 10^−8 M alone, test compound absent (LE135 series)) 55%; (Am80 1.1 × 10^−9 M alone, test compound absent (HX600 series)) 44%; (Am80 1.1 × 10^−9 M alone, test compound absent (LE135 series)) 35%; (Am80 3.3 × 10^−9 M alone, test compound absent (HX600 series)) 53%; (Am80 3.3 × 10^−9 M alone, test compound absent (LE135 series)) 51%. The NBT positive ratio amounted to 15% (Am80 3.7 × 10^−10 M alone, test compound absent (HX600 series)); 21% (Am80 3.7 × 10^−10 M alone, test compound absent (LE135 series)); 48% (Table 3: Am80 1.0 × 10^−9 M alone, no HX801); 5% (Table 3: Am80 1.1 × 10^−10 M alone, no HX801); 0.6% (Table 3: Am80 1.2 × 10^−11 M alone, no HX801); 30% (Table 3: Am80 3.3 × 10^−10 M alone, no HX801). Further, the “NBT positive ratio” value (Table 3: Am80 3.7 × 10^−11 M alone, no HX801) is given as 3%.

In the case of `CC1(C)CCC(C)(C)c2cc3c(cc21)Cc1ccccc1N=C3c1ccc(C(=O)O)cc1` [HX640, 4-[2,3-(2,5-dimethyl-2,5-hexano)-dibenzo[b,e]azepine-11-yl]benzoic acid], the NBT positive ratio is recorded as 69% (Am80 1.1 × 10^−10 M + test compound 1.0 × 10^−7 M); 24% (Am80 1.1 × 10^−10 M + test compound 1.0 × 10^−8 M); 5% (Am80 1.1 × 10^−10 M + test compound 1.0 × 10^−9 M); 7% (Am80 1.1 × 10^−10 M + test compound 1.0 × 10^−10 M); 85% (Am80 3.3 × 10^−10 M + test compound 1.0 × 10^−6 M); 89% (Am80 3.3 × 10^−10 M + test compound 1.0 × 10^−7 M). Also, the NBT positive ratio is, setting by setting: (Am80 3.3 × 10^−10 M + test compound 1.0 × 10^−8 M) 75%; (Am80 3.3 × 10^−10 M + test compound 1.0 × 10^−9 M) 46%; (Am80 3.3 × 10^−10 M + test compound 1.0 × 10^−10 M) 44%.

These data come from patent publication US6476017B2, “Compounds activating pharmacological effect of retinoids” (Institute of Medicinal Molecular Design, Inc., priority 1995, dated 2002).
